# pIC50: −log10 of the molar value. Read-outs that look alike come from different tables or passages of the source.
# Tests used:
# [1] = test system: HIF activity; assay: U2OS-HRE-luc cell-based HRE-luciferase reporter assay; details: for inhibition of luciferase activity in U2OS-HRE cells: 1 μM, 1% O2 for 16 hours
# Description: Cells were harvested and luciferase activity was measured in cell lysates using a standard luminometer. Data was represented as relative light units (RLU) for each condition.
# (§1) Tubulin was used as a loading control.
# [2] = test system: HIF-2α; assay: Western blot of HIF-2α protein induction in hypoxia; format: cell-based; details: 1 μM
# Description: (§2) U2OS-HRE-luc described in A, were harvested for western blot analysis. FIG. 1B: Western blots show the effects of HIF-Inhib1 on HIF-1α protein in normoxia or hypoxia. Actin was used as a load control. FIG. 1C: Western blots show HIF-1α, phosphorylated ERK1/2 (ERK1/2-P), and AKT/PKB proteins in the absence (−) and presence of 1 μM HIF-Inhib1 in normoxia (norm) or hypoxia (hyp). Actin was used as a load control. FIG. 1D: Western blots show the effects of HIF-Inhib1 (1 μM) on HIF-2α protein levels. UT (untreated), and DMSO treated (−) controls are indicated;
# [3] = test system: ERK1/2 and AKt/PKB; assay: Western blot of cellular signaling proteins ERK1/2 and AKt/PKB; format: cell-based; details: 1 μM, normoxia or hypoxia
# Description: as §2
# [4] = test system: VEGF; assay: VEGF protein by quantitative ELISA in U2OS-HRE-luc cells; format: cell-based
# Description: (§3) Cells were harvested and assessed for VEGF and GLUT1 protein levels using a quantitative ELISA or by western blot analysis respectively. In addition, tumour cells were exposed to 0.5 or 2.5 μM HIF-Inhib1 in hypoxia, and tumour cell migration was measured using a 2-dimensional filter-based migration assay.
# [5] = test system: GLUT1; assay: GLUT1 protein by western blot in U2OS-HRE-luc cells; format: cell-based; details: 0.1-1 μM, hypoxia 16 hours
# Description: as §3
# [6] = test system: eIF-2α phosphorylation; assay: Western blot of eIF-2α phosphorylation in U2OS-HRE-luc cells; format: cell-based; details: for eIF-2α phosphorylation (western blot): dose range, normoxia or hypoxia 16 hours
# Description: Cells were harvested and components of the protein translational machinery were assessed by western blot analysis.
# as §1
# [7] = test system: panel of tumour cell lines; assay: Growth inhibition / toxicity on tumour cell lines; format: cell-based
# [8] = PK by LCMS in PC3LN5 subcutaneous xenograft mice; format: in vivo; details: for concentration at 24 h: intraperitoneal
# Description: HIF-Inhib1 was administered IP dose of 100 mg·kg^−1 to Nu mice with PC3LN5 xenografts. Mice were killed at 24 h and xenografts removed for PD/PK analysis. Tumour samples were homogenised with 3× (v/w) PBS and 50 μL extracted by addition of 150 μL of methanol. Tumour extracts were analysed by LCMS using reverse-phase Synergi Polar-RP (Phenomenx, 50×2.1 mm) analytical column and positive ion mode ESI+ MRM.
# [9] = test system: PC3LN5 orthotopic xenograft; assay: PC3LN5 orthotopic mouse xenograft model: tumour growth, metastasis, body weight, PK; format: in vivo, mice
# Description: (§4) PC3LN5 (10^5 cells) were implanted intraprostatically into mice (Nu) and tumours were allowed to develop for 12 days. Mice received HIF-Inhib1 (75 mg·kg^−1) by IP injection daily for 2.5 weeks. Plasma and tumour samples were taken 24 h after the last dose and analysed by LCMS. Tumours were excised and homogenised, and assessed for PD endpoints HIF-1α and VEGF proteins. Local and distant lymph node metastases were also evaluated.
# [10] = test system: VEGF; assay: PD endpoint VEGF protein in PC3LN5 orthotopic tumours; format: in vivo, mice; details: 75 mg/kg IP daily
# Description: as §4
# [11] = test system: HIF activity and HIF-α expression; assay: HIF activity and HIF-α expression in several cancer cell lines; format: cell-based
# [12] = Tolerability of daily IP dosing in mice; details: mouse, in vivo
# [13] = PC3LN5 orthotopic xenograft, 75 mg/kg IP daily
compound,measurement,setting,value
CCC1=C(C[C@@H]2NCCc3cc(OC)c(OC)cc32)C[C@H]2c3ccccc3CCN2C1 [UCL-ONY-003],inhibition of luciferase activity in U2OS-HRE cells,[1],inactive
CCC1=C(C[C@@H]2NCCc3cc(OC)c(OC)cc32)C[C@@H]2c3ccccc3CCN2C1 [UCL-ONY-002],inhibition of luciferase activity in U2OS-HRE cells,[1],inactive
CCC1=C(CC2NCCc3cc(OC)c(OC)cc32)CC2c3ccccc3CCN2C1 (stereo not drawn) [Compound I],"HIF activity (HRE-luciferase activity, RLU)","[1]; 0.1-1 μM, hypoxia (1% O2) 16 hours",blocks HIF activity
same,pIC50,[1]; read-out: IC50 for inhibiting HIF activity,~6.30
same,HIF-2α protein induction in hypoxia,[2],blocks HIF-2α protein induction in hypoxia
same,expression of key cellular signaling proteins ERK1/2 and AKt/PKB,[3],no significant effect
same,induction of HIF target protein VEGF,"[4]; 0.1-1 μM, hypoxia 16 hours, ELISA",blocks the induction
same,potency in blocking VEGF induction in hypoxia,[4]; hypoxia,0.25 to 0.5 µM
same,induction of HIF target protein GLUT1,[5],blocks the induction
same,potency in blocking eIF-2α phosphorylation,[6],0.25 to 0.5 µM
same,eIF-2α phosphorylation (western blot),[6],block eIF-2α phosphorylation
same,eIF-2α phosphorylation (western blot),[6]; listed as HIF-Inhib1,blocked eIF-2α phosphorylation in a dose-dependent manner
same,concentrations inhibiting growth of a panel of tumour cell lines,[7],submicromolar
same,bioavailability in vivo,"[8]; 100 mg/kg IP, PC3LN5 xenograft mice",Good Bioavailability
same,pharmacokinetic properties in vivo,"[8]; mouse, in vivo",favourable pharmacokinetic properties
same,concentration at 24 h,"[8]; mouse, plasma, 100 mg/kg IP, Nu mice with PC3LN5 xenografts, read-out: Plasma concentrations",70 to 300 nM
same,concentration at 24 h,"[8]; mouse, tumour (PC3LN5 subcutaneous xenograft), 100 mg/kg IP, PC3LN5 subcutaneous xenografts, Nu mice, LCMS, read-out: Tumour concentrations",1900 to 35000 nM
same,PK profile in tumours,"[9]; 75 mg/kg IP daily, 24 h after last dose, LCMS",good PK profile
same,Mouse body weight,"[9]; 16 days of daily dosing, 75 mg/kg IP",not significantly affected
same,metastasis (local and distant lymph nodes),[9]; [13],significantly blocked
same,tumour growth,[9]; [13],significantly blocked
same,VEGF protein in PC3LN5 orthotopic tumours,[10],blocked
same,HIF activity and HIF-α expression in response to hypoxia and growth factors,[11],inhibits both HIF activity and HIF-α expression
same,MTD,[12],≤ 100 mg/kg
"CC[C@H]1CN2CCc3cc(OC)c(OC)cc3[C@@H]2C[C@@H]1C[C@H]1NCCc2cc(OC)c(OC)cc21 [emetine, reference compound]",HIF activity (relative light units),"[1]; emetine 0.017 uM, hypoxia (1% O2) 16 hours",significantly blocked HIF activity
same,eIF-2α phosphorylation (western blot),[6],blocks eIF-2α phosphorylation
CCC1=C(CC2c3ccc(OC)cc3CCN2S(C)(=O)=O)CC2c3ccccc3CCN2C1 (racemic) [UCL-ONY-004],inhibition of luciferase activity in U2OS-HRE cells,[1],inactive

# From patent US20170157112A1, “HIF INHIBITORS” (UCL BUSINESS PLC, priority 2013, published 2017)
